According to patent US6737383B1, “Herbicidal oxadiazolidines” (priority 1999, dated 2004):

How the values were obtained:
morningglory = assay: Test A morningglory; format: in vivo, Ipomoea spp.; details: 0 to 10 scale where 0 is no effect and 10 is complete control
How it was run: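 Ratings came from visual comparison with untreated plants about eleven days after treatment, scored 0 for no effect through 10 for complete control. Both soil-drench preemergence and runoff-spray postemergence applications were made at the same time.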

barnyardgrass = assay: Test C postemergence barnyardgrass; format: in vivo, Echinochloa crus-galli; details: 0 to 100 scale, 0 no effect, 100 complete control
How it was run: (§1)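 Activity is expressed as percent-style visual control, 0 (no effect) to 100 (complete control), assessed approximately 14 to 21 days after application, relative to untreated plants. Application was postemergence, using a non-phytotoxic solvent formulation with surfactant.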

common ragweed = assay: Test C postemergence common ragweed; format: in vivo, Ambrosia elatior; details: 0 to 100 scale, 0 no effect, 100 complete control
How it was run: as §1

cotton = assay: Test C postemergence cotton; format: in vivo, Gossypium hirsutum; details: 0 to 100 scale, 0 no effect, 100 complete control
Procedure: (§2) Compounds evaluated in this test were formulated in a non-phytotoxic solvent mixture which included a surfactant and applied to plants that were grown for various periods of time before treatment (postemergence application). A mixture of sandy loam soil and greenhouse potting mix in a 60:40 ratio was used for the postemergence test.
(§3) Plantings of these crops and weed species were adjusted to produce plants of appropriate size for the postemergence test. All plant species were grown using normal greenhouse practices. Crop and weed species include arrowleaf sida (Sida rhombifolia), barnyardgrass (Echinochloa crus-galli), cocklebur (Xanthium strumarium), common ragweed (Ambrosia elatior), corn (Zea mays), cotton (Gossypium hirsutum), eastern black nightshade (Solanum ptycanthum), fall panicum (Panicum dichotomiflorum), field bindweed (Convolvulus arvensis), giant foxtail (Setaria faberii), hairy beggarticks (Bidens pilosa), ivyleaf morningglory (Ipomoea hederacea), johnsongrass (Sorghum halepense), ladysthumb smartweed (Polygonum persicaria), lambsquarters (Chenopodium album), large crabgrass (Digitaria sanguinalis), purple nutsedge (Cyperus rotundus), redroot pigweed (Amaranthus retroflexus), soybean (Glycine max), surinam grass (Brachiaria decumbens), velvetleaf (Abutilon theophrasti) and wild poinsettia (Euphorbia heterophylla).
(§4) Treated plants and untreated controls were maintained in a greenhouse for approximately 14, to 21 days, after which all treated plants were compared to untreated controls and visually evaluated. Plant response ratings, summarized in Table C, were based upon a 0 to 100 scale where 0 was no effect and 100 was complete control. A dash response (−) means no test result.

field bindweed = assay: Test C postemergence field bindweed; format: in vivo, Convolvulus arvensis; details: 0 to 100 scale, 0 no effect, 100 complete control
Procedure: as §2, §3, §4

giant foxtail = assay: Test C postemergence giant foxtail; format: in vivo, Setaria faberii; details: 0 to 100 scale, 0 no effect, 100 complete control
How it was run: as §1

johnsongrass = assay: Test C postemergence johnsongrass; format: in vivo, Sorghum halepense; details: 0 to 100 scale, 0 no effect, 100 complete control
Procedure: as §2, §3, §4

ladysthumb smartweed = assay: Test C postemergence ladysthumb smartweed; format: in vivo, Polygonum persicaria; details: 0 to 100 scale, 0 no effect, 100 complete control
Procedure: as §2, §3, §4

soybean = assay: Test C postemergence soybean; format: in vivo, Glycine max; details: 0 to 100 scale, 0 no effect, 100 complete control
Procedure: as §2, §3, §4

velvetleaf = assay: Test C postemergence velvetleaf; format: in vivo, Abutilon theophrasti; details: 0 to 100 scale, 0 no effect, 100 complete control
How it was run: as §1

wild poinsettia = assay: Test C postemergence wild poinsettia; format: in vivo, Euphorbia heterophylla; details: 0 to 100 scale, 0 no effect, 100 complete control
Procedure: as §2, §3, §4

| SMILES | Plant response rating, Barnyardgrass (barnyardgrass; Rate 140 g/ha) | Plant response rating, Barnyardgrass (barnyardgrass; Rate 280 g/ha) | Plant response rating, Barnyardgrass (barnyardgrass; Rate 560 g/ha) | Plant response rating, Barnyardgrass (barnyardgrass; Rate 1120 g/ha) | Plant response rating Common ragweed (common ragweed; Rate 140 g/ha) | Plant response rating Common ragweed (common ragweed; Rate 280 g/ha) | Plant response rating Common ragweed (common ragweed; Rate 560 g/ha) | Plant response rating Common ragweed (common ragweed; Rate 1120 g/ha) | Plant response rating Cotton (cotton; Rate 140 g/ha) | Plant response rating Cotton (cotton; Rate 280 g/ha) | Plant response rating Cotton (cotton; Rate 560 g/ha) | Plant response rating Cotton (cotton; Rate 1120 g/ha) | Plant response rating Field bindweed (field bindweed; Rate 140 g/ha) | Plant response rating Field bindweed (field bindweed; Rate 280 g/ha) | Plant response rating Field bindweed (field bindweed; Rate 560 g/ha) | Plant response rating Field bindweed (field bindweed; Rate 1120 g/ha) | Plant response rating, Giant foxtail (giant foxtail; Rate 140 g/ha) | Plant response rating, Giant foxtail (giant foxtail; Rate 280 g/ha) | Plant response rating, Giant foxtail (giant foxtail; Rate 560 g/ha) | Plant response rating, Giant foxtail (giant foxtail; Rate 1120 g/ha) | further results |
| --- | --- | --- | --- | --- | --- | --- | --- | --- | --- | --- | --- | --- | --- | --- | --- | --- | --- | --- | --- | --- | --- |
| Cc1ccccc1-n1c(=O)on(C(=O)N(C2=CCOCC2)C(C)C)c1=O [Compound 10] |  |  |  |  |  |  |  |  |  |  |  |  |  |  |  |  |  |  |  |  | Plant response rating, Morningglory (morningglory; Postemergence, Rate 1000 g/ha): 0; Plant response rating, Morningglory (morningglory; Pre-emergence, Rate 2000 g/ha): 1 |
| C=CCn1c(=O)on(C(=O)N(c2ccccc2)C(C)C)c1=O [Compound 93] | 70 | 90 | 90 | 95 | 5 | 10 | 10 | 20 | 15 | 30 | 70 | 85 | 0 | 0 | 0 | 50 | 10 | 55 | 80 | 95 | Plant response rating, Johnsongrass (johnsongrass; Rate 140 g/ha): 0; Plant response rating, Johnsongrass (johnsongrass; Rate 280 g/ha): 5; Plant response rating, Johnsongrass (johnsongrass; Rate 560 g/ha): 85; Plant response rating, Johnsongrass (johnsongrass; Rate 1120 g/ha): 90; Plant response rating Ladysthumb (ladysthumb smartweed; Rate 140 g/ha): 0; Plant response rating Ladysthumb (ladysthumb smartweed; Rate 280 g/ha): 0; Plant response rating Ladysthumb (ladysthumb smartweed; Rate 560 g/ha): 80; Plant response rating, Soybean (soybean; Rate 140 g/ha): 40; Plant response rating, Soybean (soybean; Rate 280 g/ha): 60; Plant response rating, Soybean (soybean; Rate 560 g/ha): 80; Plant response rating, Soybean (soybean; Rate 1120 g/ha): 85; Plant response rating, Velvetleaf (velvetleaf; Rate 140 g/ha): 0; Plant response rating, Velvetleaf (velvetleaf; Rate 280 g/ha): 5; Plant response rating, Velvetleaf (velvetleaf; Rate 560 g/ha): 40; Plant response rating, Velvetleaf (velvetleaf; Rate 1120 g/ha): 70; Plant response rating Wild poinsettia (wild poinsettia; Rate 140 g/ha): 0; Plant response rating Wild poinsettia (wild poinsettia; Rate 280 g/ha): 0; Plant response rating Wild poinsettia (wild poinsettia; Rate 560 g/ha): 30; Plant response rating Wild poinsettia (wild poinsettia; Rate 1120 g/ha): 70 |
| CC(C)N(C(=O)n1oc(=O)n(Cc2cccs2)c1=O)c1ccccc1 [Compound 103] | 0 | 0 | 10 | 80 | 0 | 0 | 0 | 5 | 0 | 20 | 40 | 80 | 0 | 0 | 0 | 0 | 0 | 0 | 0 | 40 | Plant response rating, Johnsongrass (johnsongrass; Rate 140 g/ha): 0; Plant response rating, Johnsongrass (johnsongrass; Rate 280 g/ha): 0; Plant response rating, Johnsongrass (johnsongrass; Rate 560 g/ha): 0; Plant response rating, Johnsongrass (johnsongrass; Rate 1120 g/ha): 0; Plant response rating Ladysthumb (ladysthumb smartweed; Rate 140 g/ha): 0; Plant response rating Ladysthumb (ladysthumb smartweed; Rate 280 g/ha): 0; Plant response rating Ladysthumb (ladysthumb smartweed; Rate 560 g/ha): 10; Plant response rating Ladysthumb (ladysthumb smartweed; Rate 1120 g/ha): 10; Plant response rating, Soybean (soybean; Rate 140 g/ha): 30; Plant response rating, Soybean (soybean; Rate 280 g/ha): 30; Plant response rating, Soybean (soybean; Rate 560 g/ha): 35; Plant response rating, Soybean (soybean; Rate 1120 g/ha): 35; Plant response rating, Velvetleaf (velvetleaf; Rate 140 g/ha): 0; Plant response rating, Velvetleaf (velvetleaf; Rate 280 g/ha): 5; Plant response rating, Velvetleaf (velvetleaf; Rate 560 g/ha): 10; Plant response rating, Velvetleaf (velvetleaf; Rate 1120 g/ha): 45; Plant response rating Wild poinsettia (wild poinsettia; Rate 140 g/ha): 0; Plant response rating Wild poinsettia (wild poinsettia; Rate 280 g/ha): 0; Plant response rating Wild poinsettia (wild poinsettia; Rate 560 g/ha): 10; Plant response rating Wild poinsettia (wild poinsettia; Rate 1120 g/ha): 60 |
| CC(C)N(C(=O)n1oc(=O)n(Cc2cccs2)c1=O)c1ccc(F)cc1 [Compound 80] | 0 | 10 | 20 | 20 | 0 | 0 | 5 | 5 | 20 | 35 | 40 | 40 | 0 | 0 | 0 | 0 | 0 | 0 | 0 | 20 | Plant response rating, Johnsongrass (johnsongrass; Rate 140 g/ha): 0; Plant response rating, Johnsongrass (johnsongrass; Rate 280 g/ha): 0; Plant response rating, Johnsongrass (johnsongrass; Rate 560 g/ha): 0; Plant response rating, Johnsongrass (johnsongrass; Rate 1120 g/ha): 0; Plant response rating Ladysthumb (ladysthumb smartweed; Rate 140 g/ha): 10; Plant response rating Ladysthumb (ladysthumb smartweed; Rate 280 g/ha): 10; Plant response rating Ladysthumb (ladysthumb smartweed; Rate 560 g/ha): 70; Plant response rating Ladysthumb (ladysthumb smartweed; Rate 1120 g/ha): 70; Plant response rating, Soybean (soybean; Rate 140 g/ha): 5; Plant response rating, Soybean (soybean; Rate 280 g/ha): 20; Plant response rating, Soybean (soybean; Rate 560 g/ha): 60; Plant response rating, Velvetleaf (velvetleaf; Rate 140 g/ha): 5; Plant response rating, Velvetleaf (velvetleaf; Rate 280 g/ha): 5; Plant response rating, Velvetleaf (velvetleaf; Rate 560 g/ha): 20; Plant response rating, Velvetleaf (velvetleaf; Rate 1120 g/ha): 20; Plant response rating Wild poinsettia (wild poinsettia; Rate 140 g/ha): 0; Plant response rating Wild poinsettia (wild poinsettia; Rate 280 g/ha): 0; Plant response rating Wild poinsettia (wild poinsettia; Rate 560 g/ha): 5; Plant response rating Wild poinsettia (wild poinsettia; Rate 1120 g/ha): 5 |
